The values that follow come from patent US11331369B2, “Endoparasitic depsipeptides” (Zoetis Services LLC, priority 2017, dated 2022).

Experiment [1] relates to third stage larvae of Haemonchus contortus. As to the kind of experiment: Haemonchus contortus L3 (HcL3) Assay. The conditions noted are these: 96 h, read-out: HcL3 Minimum Effective Dose (MED). Type of experiment: cell-based.
Experiment [2] deals with microfilariae of Dirofilaria immitis. As to the kind of experiment: Dirofilaria immitis, Microfilaria (DiMF) In vitro Assay. It counts as cell-based. Particulars: 72 h, read-out: DiMF Minimum Effective Dose (MED), approximately 72 hours incubation, microfilariae assessed for survival or paralysis.

As for `CC(C)C[C@H]1C(=O)O[C@H](Cc2ccc(Cn3cc(CO)cn3)cc2)C(=O)N(C)[C@@H](CC(C)C)C(=O)O[C@H](C)C(=O)N(C)[C@@H](CC(C)C)C(=O)O[C@H](Cc2ccccc2)C(=O)N(C)[C@@H](CC(C)C)C(=O)O[C@H](C)C(=O)N1C` [Example 2-19, (3S,6R,9S,12R,15S,18R,21S,24R)-6-benzyl-18-(4-((4-(hydroxymethyl)-1H-pyrazol-1-yl)methyl)benzyl)-3,9,15,21-tetraisobutyl-4,10,12,16,22,24-hexamethyl-1,7,13,19-tetraoxa-4,10,16,22-tetraazacyclotetracosan-2,5,8,11,14,17,20,23-octaone], the minimal effective concentration in experiment [1] fell in the range of 1 to 10 µM; in experiment [2], 0.001 to 0.01 µM.
For `CC(C)C[C@H]1C(=O)O[C@H](Cc2ccc(CN3CCOC3=O)cc2)C(=O)N(C)[C@@H](CC(C)C)C(=O)O[C@H](C)C(=O)N(C)[C@@H](CC(C)C)C(=O)O[C@H](Cc2ccccc2)C(=O)N(C)[C@@H](CC(C)C)C(=O)O[C@H](C)C(=O)N1C` [Example 10-18, (3S,6R,9S,12R,15S,18R,21S,24R)-6-benzyl-3,9,15,21-tetraisobutyl-4,10,12,16,22,24-hexamethyl-18-(4-((2-oxooxazolidin-3-yl)methyl)benzyl)-1,7,13,19-tetraoxa-4,10,16,22-tetraazacyclotetracosan-2,5,8,11,14,17,20,23-octaone] the same measures were 1 to 10 µM and 0.01 to 0.1 µM.
For `CC(C)C[C@H]1C(=O)O[C@H](Cc2ccc(Cn3nccc3OC(C)C)cc2)C(=O)N(C)[C@@H](CC(C)C)C(=O)O[C@H](C)C(=O)N(C)[C@@H](CC(C)C)C(=O)O[C@H](Cc2ccc(Cn3ccc(OC(C)C)n3)cc2)C(=O)N(C)[C@@H](CC(C)C)C(=O)O[C@H](C)C(=O)N1C` [Example 1a-35, (3S,6R,9S,12R,15S,18R,21S,24R)-3,9,15,21-tetraisobutyl-6-(4-((3-isopropoxy-1H-pyrazol-1-yl)methyl)benzyl)-18-(4-((5-isopropoxy-1H-pyrazol-1-yl)methyl)benzyl)-4,10,12,16,22,24-hexamethyl-1,7,13,19-tetraoxa-4,10,16,22-tetraazacyclotetracosan-2,5,8,11,14,17,20,23-octaone], in that order: 1 to 10 µM and 0.01 to 0.1 µM.
For `CC(C)C[C@H]1C(=O)O[C@H](Cc2ccc(Cn3ccnn3)cc2)C(=O)N(C)[C@@H](CC(C)C)C(=O)O[C@H](C)C(=O)N(C)[C@@H](CC(C)C)C(=O)O[C@H](Cc2ccc(Cn3ccnn3)cc2)C(=O)N(C)[C@@H](CC(C)C)C(=O)O[C@H](C)C(=O)N1C` [Example 9-6, (3S,6R,9S,12R,15S,18R,21S,24R)-6,18-bis(4-((1H-1,2,3-triazol-1-yl)methyl)benzyl)-3,9,15,21-tetraisobutyl-4,10,12,16,22,24-hexamethyl-1,7,13,19-tetraoxa-4,10,16,22-tetraazacyclotetracosan-2,5,8,11,14,17,20,23-octaone] the same measures were 1 to 10 µM and 0.001 to 0.01 µM.
Consider `Cc1nn(Cc2ccc(C[C@H]3OC(=O)[C@H](CC(C)C)N(C)C(=O)[C@@H](C)OC(=O)[C@H](CC(C)C)N(C)C(=O)[C@@H](Cc4ccccc4)OC(=O)[C@H](CC(C)C)N(C)C(=O)[C@@H](C)OC(=O)[C@H](CC(C)C)N(C)C3=O)cc2)c(C)c1F` [Example 2-79, (3S,6R,9S,12R,15S,18R,21S,24R)-6-benzyl-18-(4-((4-fluoro-3,5-dimethyl-1H-pyrazol-1-yl)methyl)benzyl)-3,9,15,21-tetraisobutyl-4,10,12,16,22,24-hexamethyl-1,7,13,19-tetraoxa-4,10,16,22-tetraazacyclotetracosan-2,5,8,11,14,17,20,23-octaone], for which the results for the minimal effective concentration in experiment [1] and in experiment [2] were 1 to 10 µM and 0.01 to 0.1 µM, respectively.
For `CC(C)C[C@H]1C(=O)O[C@H](Cc2ccc(Cn3cc(C(C)(C)C)cn3)cc2)C(=O)N(C)[C@@H](CC(C)C)C(=O)O[C@H](C)C(=O)N(C)[C@@H](CC(C)C)C(=O)O[C@H](Cc2ccc(Cn3cccn3)cc2)C(=O)N(C)[C@@H](CC(C)C)C(=O)O[C@H](C)C(=O)N1C` [Example 1a-17, (3S,6R,9S,12R,15S,18R,21S,24R)-6-(4-((1H-pyrazol-1-yl)methyl)benzyl)-18-(4-((4-(tert-butyl)-1H-pyrazol-1-yl)methyl)benzyl)-3,9,15,21-tetraisobutyl-4,10,12,16,22,24-hexamethyl-1,7,13,19-tetraoxa-4,10,16,22-tetraazacyclotetracosan-2,5,8,11,14,17,20,23-octaone], in that order: 1 to 10 µM and 0.001 to 0.01 µM.
For `CC(C)C[C@H]1C(=O)O[C@H](Cc2ccc(Cn3ccc(C4CC4)n3)cc2)C(=O)N(C)[C@@H](CC(C)C)C(=O)O[C@H](C)C(=O)N(C)[C@@H](CC(C)C)C(=O)O[C@H](Cc2ccccc2)C(=O)N(C)[C@@H](CC(C)C)C(=O)O[C@H](C)C(=O)N1C` [Example 2-74, (3S,6R,9S,12R,15S,18R,21S,24R)-6-benzyl-18-(4-((3-cyclopropyl-1H-pyrazol-1-yl)methyl)benzyl)-3,9,15,21-tetraisobutyl-4,10,12,16,22,24-hexamethyl-1,7,13,19-tetraoxa-4,10,16,22-tetraazacyclotetracosan-2,5,8,11,14,17,20,23-octaone], in that order: 1 to 10 µM and 0.001 to 0.01 µM.
For `CC(C)C[C@H]1C(=O)O[C@H](Cc2ccc(Cn3ncnc3-c3ccccc3)cc2)C(=O)N(C)[C@@H](CC(C)C)C(=O)O[C@H](C)C(=O)N(C)[C@@H](CC(C)C)C(=O)O[C@H](Cc2ccc(Cn3ncnc3-c3ccccc3)cc2)C(=O)N(C)[C@@H](CC(C)C)C(=O)O[C@H](C)C(=O)N1C` [Example 9-34, (3S,6R,9S,12R,15S,18R,21S,24R)-3,9,15,21-tetraisobutyl-4,6,10,16,18,22-hexamethyl-12,24-bis(4-((5-phenyl-1H-1,2,4-triazol-1-yl)methyl)benzyl)-1,7,13,19-tetraoxa-4,10,16,22-tetraazacyclotetracosan-2,5,8,11,14,17,20,23-octaone], in that order: 1 to 10 µM and 0.001 to 0.01 µM.
For `CC(C)C[C@H]1C(=O)O[C@H](Cc2ccc(Cn3cc4c(n3)CCOC4)cc2)C(=O)N(C)[C@@H](CC(C)C)C(=O)O[C@H](C)C(=O)N(C)[C@@H](CC(C)C)C(=O)O[C@H](Cc2ccc(Cn3cc4c(n3)CCOC4)cc2)C(=O)N(C)[C@@H](CC(C)C)C(=O)O[C@H](C)C(=O)N1C` [Example 9-41, (3S,6R,9S,12R,15S,18R,21S,24R)-6,18-bis(4-((6,7-dihydropyrano[4,3-c]pyrazol-2(4H)-yl)methyl)benzyl)-3,9,15,21-tetraisobutyl-4,10,12,16,22,24-hexamethyl-1,7,13,19-tetraoxa-4,10,16,22-tetraazacyclotetracosan-2,5,8,11,14,17,20,23-octaone], the minimal effective concentration in experiment [1] lay in the range of 1 to 10 µM; in experiment [2], 0.001 to 0.01 µM.
